# Tested on: platelet aggregation
# Assay: Test for platelet aggregation-inhibiting activity of rabbit (PAF-induced aggregation in platelet rich plasma)
# Assay type: cell-based
# Design: dose or concentration left out as unconfirmed
# Details: rabbit PRP, 37°C, 10 minutes incubation, aggregation by PAF (10 μl); test compound concentration not given
# Procedure: 2. Test for platelet aggregation-inhibiting activity of rabit
# A blood of a rabbit (Japanese white; male; 2.5-3.0 kg) was exsanguinated from a carotid of the rabbit, and nine parts of the blood were mixed with one part of a 3.8% aqueous solution of sodium citrate. The mixture was centrifuged at 1100 rpm at 20°C. for 15 minutes. The upper layer is a platelet rich plasma (PRP), and the lower layer was centrifuged at 2500 rpm at 20° C. for 10 minutes, so that a platelet poor plasma (PPP) was obtained.
# 10 μl of a solution of the compound to be tested was added to 200 μl of PRP, and the mixture was subjected to incubation at 37°C. for 10 minutes. To the mixture was added 10 μl of a platelet activating factor (PAF)(10 mg/ml). The agglutination was measured by Agricometer (NKK, PAT-4A).
row,SMILES,Platelet Aggregation-Inhibiting Activity [%]
1,"COC(=O)C1=C(C)NC(C)=C(C(=O)N[C@H](C(=O)OC(C)(C)C)C(C)C)C1c1cccc([N+](=O)[O-])c1 (single isomer, unassigned) [1 (Compound a)]",42.8
2,"COC(=O)C1=C(C)NC(C)=C(C(=O)N[C@@H](C(=O)OC(C)(C)C)C(C)C)C1c1cccc([N+](=O)[O-])c1 (single isomer, unassigned) [2 (Compound a)]",25.5
3,"COC(=O)C1=C(C)NC(C)=C(C(=O)N[C@H](C(=O)OC(C)(C)C)C(C)C)C1c1ccccc1Cl (single isomer, unassigned) [7 (Compound a)]",54.1
4,"COC(=O)C1=C(C)NC(C)=C(C(=O)N[C@H](C(=O)OC(C)(C)C)C(C)C)C1c1ccccc1F (single isomer, unassigned) [13 (Compound a)]",37.7
5,"COC(=O)C1=C(C)NC(C)=C(C(=O)N[C@H](C(=O)OC(C)(C)C)C(C)C)C1c1cccc(Cl)c1 (single isomer, unassigned) [18 (Compound a)]",33.8
6,"COC(=O)C1=C(C)NC(C)=C(C(=O)N[C@H](C(=O)OC(C)(C)C)C(C)C)C1c1cccc(F)c1 (single isomer, unassigned) [19 (Compound a)]",35.4
7,"COC(=O)C1=C(C)NC(C)=C(C(=O)N[C@H](C(=O)OC(C)(C)C)C(C)C)C1c1cccc(C#N)c1 (single isomer, unassigned) [22 (Compound a)]",20.2
8,"COC(=O)C1=C(C)NC(C)=C(C(=O)N[C@H](C(=O)OC(C)(C)C)C(C)C)C1c1ccccc1 (single isomer, unassigned) [24 (Compound a)]",24.3
9,"COC(=O)C1=C(C)NC(C)=C(C(=O)N[C@H](C(=O)OC(C)(C)C)C(C)C)C1c1ccccc1[N+](=O)[O-] (single isomer, unassigned) [27 (Compound a)]",33.3
10,"COCCOC(=O)C1=C(C)NC(C)=C(C(=O)N[C@H](C(=O)OC(C)(C)C)C(C)C)C1c1cccc([N+](=O)[O-])c1 (single isomer, unassigned) [50 (Compound a)]",23.5
11,"CC1=C(C(=O)NCC(=O)OC(C)(C)C)C(c2cccc([N+](=O)[O-])c2)C(C(=O)N[C@H](C(=O)OC(C)(C)C)C(C)C)=C(C)N1 (single isomer, unassigned) [52 (Compound a)]",29.2
12,COC(=O)C1=C(C)NC(C)=C(C(=O)N[C@@H](C(=O)OC(C)(C)C)C(C)C)C1c1cccc([N+](=O)[O-])c1 (stereo partly shown) [2 (Compound b)],98.2
13,"COC(=O)C1=C(C)NC(C)=C(C(=O)NCC(=O)OC(C)(C)C)C1c1cccc([N+](=O)[O-])c1 (stereo not shown) [Example 3, t-butyl 2-[N-[1,4-dihydro-2,6-dimethyl-5-methoxycarbonyl-4-(3-nitrophenyl)pyridine-3-carbonyl]amino]acetate]",100
14,"COC(=O)C1=C(C)NC(C)=C(C(=O)NCC(=O)OC(C)(C)C)C1c1ccccc1Cl (stereo not shown) [Example 8, t-butyl 2-[N-[1,4-dihydro-2,6-dimethyl-5-methoxycarbonyl-4-(2-chlorophenyl)pyridine-3-carbonyl]-amino]acetate]",39.1
15,"COC(=O)C1=C(C)NC(C)=C(C(=O)N[C@@H](C)C(=O)OC(C)(C)C)C1c1ccccc1Cl (stereo partly drawn) [Example 9, t-butyl 2-(S)-[N-[1,4-dihydro-2,6-dimethyl-5-methoxycarbonyl-4-(2-chlorophenyl)pyridine-3-carbonyl]amino]propionate]",29.8
16,"COC(=O)C1=C(C)NC(C)=C(C(=O)N[C@H](C(=O)OC(C)(C)C)C(C)C)C1c1cccc(OC)c1 (stereo partly drawn) [Example 23, t-butyl 2-(S)-[N-[1,4-dihydro-2,6-dimethyl-5-methoxycarbonyl-4-(3-methoxyphenyl)pyridine-3-carbonyl]-amino]-3-methylbutylate]",33.6
